Structures are written as SMILES.

One may read the melting point as the temperature, or range, at which the solid turns liquid.

`CC(C)CCNC(=O)c1ccccc1-c1ccccc1CNS(=O)(=O)c1ccccc1` [Example 3 l, 2′-(Phenylsulfonylaminomethyl)biphenyl-2-carboxylic acid (3-methyl butyl)amide] gave a melting point of 127 °C. Consider `CC(C)CCNC(=O)c1ccccc1-c1ccccc1CNS(=O)(=O)c1ccc(F)cc1` [Example 3 m, 2′-(4-Fluorophenylsulfonylaminomethyl)biphenyl-2-carboxylic acid (3-methylbutyl)amide], for which the melting point was determined as 149 °C.

In turn, `CC(C)CCNC(=O)c1ccccc1-c1ccccc1CNS(=O)(=O)c1cccc(F)c1` [Example 3 n, 2′-(3-Fluorophenylsulfonylaminomethyl)biphenyl-2-carboxylic acid (3-methylbutyl)amide] displayed a melting point of 141 °C. With `O=C(NCCc1ccccn1)c1ccccc1-c1ccccc1CNS(=O)(=O)c1ccccc1` [Example 3 p], the melting point was 131 °C.

Take `O=C(NCCc1ccccn1)c1ccccc1-c1ccccc1CNS(=O)(=O)c1ccc(F)cc1` [Example 3 q, 2′-(4-Fluorophenylsulfonylaminomethyl)biphenyl-2-carboxylic acid 2-(2-pyridyl)ethylamide]: the melting point amounted to 130 °C.

With `O=C(NCCc1ccccn1)c1ccccc1-c1ccccc1CNS(=O)(=O)c1cccc(F)c1` [Example 3 r, 2′-(3-Fluorophenylsulfonylaminomethyl)biphenyl-2-carboxylic acid 2-(2-pyridyl)ethylamide], the melting point is 123 °C. To `CC(C)CCNC(=O)c1ccccc1-c1ccccc1CNC(=O)c1ccccc1` [Example 4 a, 2′-(Benzoylaminomethyl)biphenyl-2-carboxylic acid (3-methylbutyl)amide] belongs 147 °C; to `O=C(NCc1ccccc1-c1ccccc1C(=O)NCCc1ccccn1)c1ccccc1` [Example 4 b, 2′-(Benzoylaminomethyl)biphenyl-2-carboxylic acid 2-(2-pyridyl)ethylamide], 135 °C. The figure for `CC(C)CCNC(=O)c1ccccc1-c1ccccc1CNC(=O)Nc1ccccc1` [Example 5 a, 2′-[(3-Phenylureido)methyl]biphenyl-2-carboxylic acid (3-methylbutyl)amide] is 194 °C; for `O=C(NCc1ccccc1-c1ccccc1C(=O)NCCc1ccccn1)Nc1ccccc1` [Example 5 b, 2′-[(3-Phenylureido)methyl]biphenyl-2-carboxylic acid 2-(2-pyridyl)ethylamide] it is 99 °C.

Values taken from patent US7514582B2, “2′-substituted 1,1′-biphenyl-2-carboxamides, processes for their preparation, their use as medicaments, and pharmaceutical preparations comprising them” (Sanofi-Aventis Deutschland GmbH, priority 1999, dated 2009).
